Results on 14 compounds are retold here after patent US8912169B2, “Beta-lactamase inhibitors” (VenatoRx Pharmaceuticals, Inc., priority 2012, dated 2014).

Holding throughout (assay type): biochemical
The target of experiment [1] is T1, SHV-5 (Klebsiella pneumoniae, UniProt P0A3M1).
T1 construct: made in house; host or cells: E. coli BL21(DE3)
Briefly: β-lactamase enzyme inhibition, SHV-5. The procedure:
(§1) For SHV-5, Kpc-2, p99AmpC and OXA-1 β-lactamases, E. coli BL21(DE3) bacterial cells carrying expression plasmids (expressed as native untagged proteins) for the individual β-lactamases were grown in 1 L of Superbroth (Teknova Inc. Hollister, Calif.) supplemented with 100 μg/mlkanamycin selection and 1×5052 (0.5% glycerol, 0.05% glucose and 0.2% α-lactose) at 35° C. for 18-20 hours. Cells were harvested by centrifugation (4,000×g, 4° C., 20 min), resuspended in 50 ml of 10 mM HEPES pH 7.5 ( 1/20 of the initial volume). The cells were lysed by sonication (5 pulses of 45 seconds) at 45 W on ice. The lysates were clarified by centrifugation at 10,000×g for 40 minutes at 4° C. Samples were diluted 5-fold in 50 mM sodium acetate pH 5.0, stored overnight at 4° C., after which they were centrifuged at 10,000×g for 30 minutes to clarify, and filtered through 0.45 μm filters. The samples were loaded onto a 5 ml Capto S sepharose cation exchange column (GE Healthcare) pre-equilibrated with 50 mM sodium acetate pH 5.0. The column was washed with 5 column volumes of 50 mM sodium acetate pH 5.0 to wash out unbound protein and a linear gradient of NaCl (0 to 500 mM) was used to elute the protein (over 16 CV) from the column. Fractions were assayed for β-lactamase activity using Centa (Calbiochem, Gibbstown, N.J.) or Nitrocefin (EMD Millipore chemicals, Darmstadt, Germany) as a reporter β-lactamase substrate for activity in the isolated fractions. Active fractions were pooled, concentrated and further purified by gel filtration chromatography on a Superdex 75 prep grade gel filtration column (GE Healthcare, Piscataway, N.J.) pre-equilibrated in 50 mM Hepes pH 7.5, 150 mM NaCl. Active fractions were pooled concentrated, quantitated by BCA protein determination (Thermo Scientific, Rockford, Ill.), dialyzed into PBS and frozen at −80° C. in 20% glycerol until use.
(§2) An equal volume of diluted enzyme stock was added, and the plates were incubated at 37° C. for 15 min. Nitrocefin was used as substrate for p99 AmpC, VIM-2 and OXA-1 and dispensed into each well at a final concentration of 100 μM. Absorbance at 486 nm was immediately monitored for 10 min using a Biotek Powerwave XS2 microplate spectrophotometer using the GENS software package (Biotek Instruments, Winooski Vt.). In an analogous fashion, imipenem was used as substrate for Kpc-2 and Cefotaxime was used for SHV-5, while changes in absorbance upon hydrolysis of the β-lactam ring were monitored at 300 nm and 260 nm respectively in UV-transparent 96-well microtiter assay plates. Maximum rates of hydrolysis were compared to those in control wells (without inhibitors), and percentages of enzyme inhibition were calculated for each concentration of inhibitor. The concentration of inhibitor needed to reduce the initial rate of hydrolysis of substrate by 50% (IC50) was calculated as the residual activity of β-lactamase at 486 nm using GraFit version 7 kinetics software package (Erithacus Software, Surrey, UK).
(§3) Using the methodology described above, examples of the current invention were evaluated for their ability to inhibit β-lactamase enzymes from all four Ambler classifications (A through D). […] NT=Not tested.

The target of experiment [2] is T2, KPC-2 (Klebsiella pneumoniae, UniProt Q9F663).
T2 construct: made in house; host or cells: E. coli BL21(DE3)
Briefly: β-lactamase enzyme inhibition, KPC-2. To be noted: substrate imipenem, 300 nm; read-out: Class A KPC-2 IC50. The procedure:
as §1, §2, §3

In experiment [3] the target is T3, VIM-2 (Escherichia coli, UniProt Q5U7L7).
T3 construct: made in house; host or cells: E. coli BL21(DE3)
Briefly: β-lactamase enzyme inhibition, VIM-2. To be noted: substrate Nitrocefin 100 μM, 486 nm; read-out: Class B VIM-2 IC50. The procedure: For Vim-2 metallo β-lactamase, the procedure was identical with the following exceptions, first the protein was not pH adjusted to pH 5 with 50 mM sodium acetate, second, the chromatography step was changed to a 5 ml Q sepharose anion exchange column pre-equilibrated with 50 mM Hepes pH 7.5, and elution of the protein was achieved by a linear gradient of NaCl (0-600 mM). Finally, the VIM-2 purification required a second run (3rd step) on the Q sepharose anion exchange column to achieve acceptable purity (>90%).
as §2, §3

The target in experiment [4] is T4, p99 AmpC (Enterobacter cloacae, UniProt P05364).
T4 construct: made in house; host or cells: E. coli BL21(DE3)
The experiment can be described thus: β-lactamase enzyme inhibition, p99 AmpC. The procedure:
as §1, §2, §3

The target of experiment [5] is T5, OXA-1 (Escherichia coli, UniProt P13661).
T5 construct: made in house; host or cells: E. coli BL21(DE3)
The experiment can be described thus: β-lactamase enzyme inhibition, OXA-1. To be noted: substrate Nitrocefin 100 μM, 486 nm; read-out: Class D OXA-1 IC50. The procedure: as §1, §2, §3

pIC50: −log10 of the molar value. A value given as a limit tells only on which side of the number the result lay.

With `NCC1CCC(=CC(=O)N[C@H]2Cc3cccc(C(=O)O)c3OB2O)CC1` (stereo partly drawn) [Example 11, (3R)-3-(2-(4-(aminomethyl)cyclohexylidene)acetamido)-2-hydroxy-3,4-dihydro-2H-benzo[e][1,2]oxaborinine-8-carboxylic acid], the pIC50 (in general, the IC50 on a negative log10 scale, so that one unit is a factor of ten) was 6.00 to 7.00 in experiment [1]; 5.00 to 6.00 in experiment [2]; 5.00 to 6.00 in experiment [3]; > 7.00 in experiment [4]; 6.00 to 7.00 in experiment [5].
As to `NCC1CCC(CC(=O)N[C@H]2Cc3cccc(C(=O)O)c3OB2O)(C[N+](=O)[O-])CC1` (stereo partly drawn) [Example 12, (R)-3-(2-(4-(aminomethyl)-1-(nitromethyl)cyclohexyl)acetamido)-2-hydroxy-3,4-dihydro-2H-benzo[e][1,2]oxaborinine-8-carboxylic acid], the pIC50 in experiment [1] was 6.00 to 7.00; in experiment [2], 6.00 to 7.00; in experiment [3], 5.00 to 6.00; in experiment [4], > 7.00; in experiment [5], 6.00 to 7.00.
For the compound `NC[C@H](N)C(=O)N[C@H]1CC[C@H](CC(=O)N[C@H]2Cc3cccc(C(=O)O)c3OB2O)CC1` [Example 13, (R)-3-(2-(trans-4-((S)-2,3-diaminopropanamido)cyclohexyl)acetamido)-2-hydroxy-3,4-dihydro-2H-benzo[e][1,2]oxaborinine-8-carboxylic acid], the pIC50 is > 7.00 in experiment [1]; > 7.00 in experiment [2]; 6.00 to 7.00 in experiment [3]; > 7.00 in experiment [4]; > 7.00 in experiment [5].
For `CN(C)[C@H]1CC[C@H](CC(=O)N[C@H]2Cc3cccc(C(=O)O)c3OB2O)CC1` [Example 14, (R)-3-(2-(trans-4-(dimethylamino)cyclohexyl)acetamido)-2-hydroxy-3,4-dihydro-2H-benzo[e][1,2]oxaborinine-8-carboxylic acid], the pIC50 was > 7.00 in experiment [1]; > 7.00 in experiment [2]; 6.00 to 7.00 in experiment [3]; > 7.00 in experiment [4]; > 7.00 in experiment [5].
With `NCCN[C@H]1CC[C@H](CC(=O)N[C@H]2Cc3cccc(C(=O)O)c3OB2O)CC1` [Example 15, (R)-3-(2-(trans-4-(2-aminoethylamino)cyclohexyl)acetamido)-2-hydroxy-3,4-dihydro-2H-benzo[e][1,2]oxaborinine-8-carboxylic acid], the pIC50 is > 7.00 in experiment [1]; > 7.00 in experiment [2]; > 7.00 in experiment [3]; > 7.00 in experiment [4]; 6.00 to 7.00 in experiment [5].
Regarding `O=C(C[C@H]1CC[C@H](N2CCNCC2)CC1)N[C@H]1Cc2cccc(C(=O)O)c2OB1O` [Example 16, (R)-2-hydroxy-3-(2-(trans-4-(piperazin-1-yl)cyclohexyl)acetamido)-3,4-dihydro-2H-benzo[e][1,2]oxaborinine-8-carboxylic acid], the pIC50 in experiment [1] is > 7.00; in experiment [2], > 7.00; in experiment [3], 5.00 to 6.00; in experiment [4] it was > 7.00; in experiment [5] it was > 7.00.
With `O=C(C[C@H]1CC[C@@H](N2CCNCC2)CC1)N[C@H]1Cc2cccc(C(=O)O)c2OB1O` [Example 17, (R)-2-hydroxy-3-(2-(cis-4-(piperazin-1-yl)cyclohexyl)acetamido)-3,4-dihydro-2H-benzo[e][1,2]oxaborinine-8-carboxylic acid], the pIC50 is 6.00 to 7.00 in experiment [1]; > 7.00 in experiment [2]; 5.00 to 6.00 in experiment [3]; > 7.00 in experiment [4]; 6.00 to 7.00 in experiment [5].
For the compound `N[C@H]1CC[C@H](CCC(=O)N[C@H]2Cc3cccc(C(=O)O)c3OB2O)CC1` [Example 21, (R)-3-(3-(trans-4-aminocyclohexyl)propanamido)-2-hydroxy-3,4-dihydro-2H-benzo[e][1,2]oxaborinine-8-carboxylic acid], the pIC50 in experiment [1] was > 7.00; in experiment [2], > 7.00; in experiment [3] it was 5.00 to 6.00; in experiment [4], > 7.00; in experiment [5], > 7.00.
As for `N=C(N)N[C@H]1CC[C@H](CCC(=O)N[C@H]2Cc3cccc(C(=O)O)c3OB2O)CC1` [Example 22, (R)-3-(3-(trans-4-guanidinocyclohexyl)propanamido)-2-hydroxy-3,4-dihydro-2H-benzo[e][1,2]oxaborinine-8-carboxylic acid], the pIC50 is > 7.00 in experiment [1]; > 7.00 in experiment [2]; 6.00 to 7.00 in experiment [3]; > 7.00 in experiment [4]; > 7.00 in experiment [5].
On to `CN(C)CCN(C)[C@H]1CC[C@H](CC(=O)N[C@H]2Cc3cccc(C(=O)O)c3OB2O)CC1` [Example 23, (R)-3-(2-(trans-4-((2-(dimethylamino)ethyl)(methyl)amino)cyclohexyl)acetamido)-2-hydroxy-3,4-dihydro-2H-benzo[e][1,2]oxaborinine-8-carboxylic acid], for which the pIC50 in experiment [1] was > 7.00; in experiment [2], > 7.00; in experiment [3], 6.00 to 7.00; in experiment [4], > 7.00; in experiment [5] it was 6.00 to 7.00.
In the case of `N=C(N)NCCN[C@H]1CC[C@H](CC(=O)N[C@H]2Cc3cccc(C(=O)O)c3OB2O)CC1` [Example 25, (R)-3-(2-(trans-4-(2-guanidinoethylamino)cyclohexyl)acetamido)-2-hydroxy-3,4-dihydro-2H-benzo[e][1,2]oxaborinine-8-carboxylic acid], the pIC50 in experiment [1], in experiment [2], in experiment [3], in experiment [4] and in experiment [5] was > 7.00 each time.
Regarding `O=C(C[C@H]1CC[C@H](NCCO)CC1)N[C@H]1Cc2cccc(C(=O)O)c2OB1O` [Example 26, (R)-2-hydroxy-3-(2-(trans-4-(2-hydroxyethylamino)cyclohexyl)acetamido)-3,4-dihydro-2H-benzo[e][1,2]oxaborinine-8-carboxylic acid], the pIC50 was > 7.00 in experiment [1]; > 7.00 in experiment [2]; 5.00 to 6.00 in experiment [3]; > 7.00 in experiment [4]; 6.00 to 7.00 in experiment [5].
In the case of `O=C(C[C@H]1CC[C@H](NCc2cccnc2)CC1)N[C@H]1Cc2cccc(C(=O)O)c2OB1O` [Example 27, (R)-2-hydroxy-3-(2-(trans-4-(pyridin-3-ylmethylamino)cyclohexyl)acetamido)-3,4-dihydro-2H-benzo[e][1,2]oxaborinine-8-carboxylic acid], the pIC50 in experiment [1] is > 7.00; in experiment [2] it was > 7.00; in experiment [3] it was 6.00 to 7.00; in experiment [4], > 7.00; in experiment [5] it was > 7.00.
As to `O=C(O)CN[C@H]1CC[C@H](CC(=O)N[C@H]2Cc3cccc(C(=O)O)c3OB2O)CC1` [Example 28, (R)-3-(2-(trans-4-(carboxymethylamino)cyclohexyl)acetamido)-2-hydroxy-3,4-dihydro-2H-benzo[e][1,2]oxaborinine-8-carboxylic acid], the pIC50 is > 7.00 in experiment [1]; > 7.00 in experiment [2]; 5.00 to 6.00 in experiment [3]; > 7.00 in experiment [4]; 6.00 to 7.00 in experiment [5].
